Patent US12152020B2, “Pesticidally active azole-amide compounds” (SYNGENTA PARTICIPATIONS AG, priority 2018, dated 2024)

What was measured:
Format in all cases: in vivo
[1] = test system: Chilo suppressalis (Striped Rice Stemborer); assay: Example B4: Chilo suppressalis, artificial diet, L2 larvae; conditions: 144 h, application rate of 200 ppm, 6 days after infestation, in comparison to untreated samples, read-out: control in at least one of the categories (mortality, anti-feedant effect, or growth inhibition)
In short: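 Artificial diet was treated with aqueous dilutions made from 10'000 ppm DMSO stocks, dried, then infested with L2 larvae at 6–8 per well. Mortality, antifeedant effect and growth inhibition were assessed against untreated samples 6 days after infestation.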

[2] = test system: Plutella xylostella (Diamond Back Moth); assay: Example B5: Plutella xylostella, artificial diet in 24-well plates, eggs; conditions: 192 h, application rate of 200 ppm, 8 days after infestation, in comparison to untreated samples, read-out: effect in at least one of the two categories (mortality or growth inhibition)
In short: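 Artificial diet in 24-well plates treated with aqueous test solutions made from 10′000 ppm DMSO stocks, dried, then infested with Plutella eggs. Mortality and growth inhibition scored against untreated samples 8 days after infestation.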

[3] = test system: Myzus persicae (Green Peach Aphid); assay: Example B8: Myzus persicae intrinsic activity, sucrose solution under Parafilm, 24-well; conditions: 120 h, test rate of 12 ppm, 5 days after infestation
In short: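 Compounds, diluted from 10′000 ppm DMSO stocks, were mixed with sucrose solution in wells sealed with stretched Parafilm. Aphid-infested pea seedlings were placed on the Parafilm, and the covered plate was turned upside down. Mortality was scored 5 days after infestation.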

[4] = test system: Tetranychus urticae (Two-Spotted Spider Mite); assay: Example B11: Tetranychus urticae feeding/contact activity, bean leaf discs; conditions: foliar, 192 h
Experimental: Example B11: Tetranychus urticae (Two-Spotted Spider Mite): Feeding/Contact Activity
Bean leaf discs on agar in 24-well microtiter plates were sprayed with aqueous test solutions prepared from 10′000 ppm DMSO stock solutions. After drying the leaf discs were infested with a mite population of mixed ages. The samples were assessed for mortality on mixed population (mobile stages) 8 days after infestation.

[5] = test system: Spodoptera littoralis (Egyptian Cotton Leaf Worm); assay: Example B9: Spodoptera littoralis, cotton leaf discs sprayed, L1 larvae; conditions: foliar, 72 h, application rate of 200 ppm, five L1 larvae, 3 days after infestation, in comparison to untreated samples, read-out: control in at least one of the categories (mortality, anti-feedant effect, or growth inhibition)
In short: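 Cotton leaf discs on agar sprayed with aqueous solutions made from 10′000 ppm DMSO stocks, dried, then infested with five L1 larvae. Mortality, anti-feeding and growth inhibition assessed against untreated samples 3 days after infestation; control counted when any category exceeded untreated.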

COCCOc1nc(C(C)NC(=O)c2cc(C(F)(F)F)cc(C(F)(F)F)c2)n(-c2ncccn2)n1 (centres unmarked) [Compound P36, N-[1-[5-(2-methoxyethoxy)-2-pyrimidin-2-yl-1,2,4-triazol-3-yl]ethyl]-3,5-bis(trifluoromethyl) benzamide]
≥ 80%: percent control (mortality, anti-feedant effect or growth inhibition) at 200 ppm [1] | percent effect (mortality or growth inhibition) at 200 ppm [2] | mortality at 12 ppm [3] | mortality at 200 ppm [4] | percent control (mortality, anti-feedant effect or growth inhibition) at 200 ppm [5]
